The values that follow come from US9586928B2 (The Scripps Research Institute, priority 2011, dated 2017).

For one assay, the system named is VP16. Briefly: Gal4 DBD-VP16 / UAS luciferase control assay. The assay is classed as cell-based. Particulars: 10 μM.
In another assay the target is T1, RORγ (Homo sapiens, UniProt P51449).
T1 construct: expressed in transfected cells; host or cells: HEK293T
T1 sequence (P51449 269-508 limits assumed): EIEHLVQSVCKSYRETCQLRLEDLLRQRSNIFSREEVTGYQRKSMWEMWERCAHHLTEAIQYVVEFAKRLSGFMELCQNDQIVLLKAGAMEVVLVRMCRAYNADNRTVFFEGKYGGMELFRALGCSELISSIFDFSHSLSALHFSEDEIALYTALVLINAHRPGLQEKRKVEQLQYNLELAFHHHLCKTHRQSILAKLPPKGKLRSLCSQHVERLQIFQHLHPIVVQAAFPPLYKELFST
Briefly: Gal4-RORγ LBD / UAS luciferase cotransfection assay. Format: cell-based. The note with it: 10 μM.

The next assay concerns the target T2, LXR (Homo sapiens, UniProt Q13133).
T2 sequence (Q13133 209-447 limits assumed): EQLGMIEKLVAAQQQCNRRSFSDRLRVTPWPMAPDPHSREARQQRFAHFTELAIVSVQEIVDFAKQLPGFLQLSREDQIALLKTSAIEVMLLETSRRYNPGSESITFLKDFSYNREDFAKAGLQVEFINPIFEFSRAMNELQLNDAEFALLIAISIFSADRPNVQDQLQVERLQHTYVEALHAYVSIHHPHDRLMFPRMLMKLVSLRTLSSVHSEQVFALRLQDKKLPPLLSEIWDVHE
Briefly: Gal4-LXRα / UAS luciferase cotransfection assay. Format: cell-based. Particulars: 10 μM.

The target of the next assay is T3, RORα (Homo sapiens, UniProt P35398).
T3 construct: expressed in transfected cells; host or cells: HEK293T
T3 sequence (P35398 272-510 limits assumed): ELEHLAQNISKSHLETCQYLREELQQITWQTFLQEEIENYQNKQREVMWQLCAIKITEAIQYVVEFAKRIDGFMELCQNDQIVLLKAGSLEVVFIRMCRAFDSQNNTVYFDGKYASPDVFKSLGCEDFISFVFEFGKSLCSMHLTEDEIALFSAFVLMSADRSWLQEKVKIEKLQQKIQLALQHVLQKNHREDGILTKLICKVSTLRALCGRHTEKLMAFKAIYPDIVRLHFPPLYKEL
The assay is described as follows: Gal4-RORα LBD / UAS luciferase cotransfection assay. The assay is classed as cell-based. Particulars: 10 μM.

A further assay concerns the target T4, GST-RORγ (Homo sapiens, UniProt P51449).
T4 construct: 1 μg of GST-RORγ-LBD, 5 nM of [3H]T1317 as radioligand
T4 sequence (P51449 269-508 limits assumed): T1 sequence (P51449 269-508 limits assumed)
Briefly: RORγ scintillation proximity (SPA) radioligand binding assay, displacement of [3H]-T0901317. Particulars: 1 μM compound (Table 2D); read-out: RORγ SPA % bound = % radiolabel bound. (In general: Scintillation proximity formats need no separation of bound from free tracer.)

Experimental for LXR: (§1) The cells were treated with either DMSO or various compounds as indicated four hours after replating. Following additional 20 hour incubation, luciferase levels were assayed by one-step addition of 20 μL BriteLite (Perkin Elmer) and read using an Envision multilabel plate reader (Perkin Elmer).
Cotransfection assays were performed as previously described in HEK293 cells (Gal4 cotransfection assay or IL-17 luciferase reporter)[8]. HEK293 and the mouse lymphoma EL4 (ATCC) cells were maintained in DMEM supplemented with 10% FBS plus antibiotics (penicillin and streptomycin; Invitrogen).
Experimental for VP16: as §1

Consider `OCCN1CCN(Cc2ccc(-c3ccc(C(O)(C(F)(F)F)C(F)(F)F)cc3)cc2)CC1` [Compound 2, 1,1,1,3,3,3-Hexafluoro-2-(4′-((4-(2-hydroxyethyl)piperazin-1-yl)methyl)-[1,1′-biphenyl]-4-yl)propan-2-ol], for which the “VP16 repression, fold change over DMSO” value in the assay with VP16 was determined as 0.9 fold change over DMSO. In addition, the “RORγ repression, fold change over DMSO” value on RORγ turned out to be 0.9 fold change over DMSO. The “LXR activation, fold change over DMSO” value on LXR worked out at 1.1 fold change over DMSO. In addition, the “RORα repression, fold change over DMSO” value at RORα is given as 1.3 fold change over DMSO.

As for `OC(c1ccc(-c2ccc(CN3CCN(CCc4ccccc4)CC3)cc2)cc1)(C(F)(F)F)C(F)(F)F` [Compound 11, 1,1,1,3,3,3-Hexafluoro-2-(4′-((4-phenethylpiperazin-1-yl)methyl)-[1,1′-biphenyl]-4-yl)propan-2-ol], the “VP16 repression, fold change over DMSO” value in the assay with VP16 is given as 0.35 fold change over DMSO. The “RORγ repression, fold change over DMSO” value at RORγ is reported as 0.5 fold change over DMSO. In addition, the “LXR activation, fold change over DMSO” value at LXR was 1 fold change over DMSO. Moreover, at RORα, the “RORα repression, fold change over DMSO” value was determined as 0.5 fold change over DMSO.

On to `OC(c1ccc(-c2ccc(CN3CCN(c4ccccc4)CC3)cc2)cc1)(C(F)(F)F)C(F)(F)F` [Compound 14, 1,1,1,3,3,3-Hexafluoro-2-(4′-((4-phenylpiperazin-1-yl)methyl)-[1,1′-biphenyl]-4-yl)propan-2-ol], for which the “VP16 repression, fold change over DMSO” value in the assay on VP16 stood at 0.4 fold change over DMSO. Further, the “RORγ repression, fold change over DMSO” value on RORγ worked out at 0.05 fold change over DMSO. In addition, the “LXR activation, fold change over DMSO” value at LXR is recorded as 5 fold change over DMSO. Moreover, on RORα, the “RORα repression, fold change over DMSO” value worked out at 0.4 fold change over DMSO.

In the case of `O=C(C1CCCO1)N1CCN(Cc2ccc(-c3ccc(C(O)(C(F)(F)F)C(F)(F)F)cc3)cc2)CC1` (stereo not drawn) [Compound 16, (4-((4′-(1,1,1,3,3,3-Hexafluoro-2-hydroxypropan-2-yl)-[1,1′-biphenyl]-4-yl)methyl)piperazin-1-yl)(tetrahydrofuran-2-yl)methanone], in the assay on VP16, the “VP16 repression, fold change over DMSO” value amounted to 0.6 fold change over DMSO. Also, the “RORγ repression, fold change over DMSO” value on RORγ stood at 0.6 fold change over DMSO. Besides, the “LXR activation, fold change over DMSO” value at LXR is given as 1.4 fold change over DMSO. Also, the “RORα repression, fold change over DMSO” value on RORα turned out to be 0.8 fold change over DMSO.

Regarding `OC(c1ccc(-c2ccc(CN3CCN(Cc4cccs4)CC3)cc2)cc1)(C(F)(F)F)C(F)(F)F` [Compound 19, 1,1,1,3,3,3-Hexafluoro-2-(4′-((4-(thiophen-2-ylmethyl)piperazin-1-yl)methyl)-[1,1′-biphenyl]-4-yl)propan-2-ol], the “VP16 repression, fold change over DMSO” value in the assay on VP16 is 0.4 fold change over DMSO. At RORγ, the “RORγ repression, fold change over DMSO” value is reported as 0.5 fold change over DMSO. The “LXR activation, fold change over DMSO” value on LXR is on record as 1.5 fold change over DMSO. Further, the “RORα repression, fold change over DMSO” value at RORα is recorded as 0.75 fold change over DMSO.

Regarding `OC(c1ccc(-c2ccc(CN3CCN(Cc4cc5cc(F)ccc5[nH]4)CC3)cc2)cc1)(C(F)(F)F)C(F)(F)F` [Compound 20, 1,1,1,3,3,3-Hexafluoro-2-(4′-((4-((5-fluoro-1H-indol-2-yl)methyl)piperazin-1-yl)methyl)-[1,1′-biphenyl]-4-yl)propan-2-ol], the “VP16 repression, fold change over DMSO” value with VP16 came out at 0.1 fold change over DMSO. Besides, at RORγ, the “RORγ repression, fold change over DMSO” value was determined as 0.05 fold change over DMSO. In addition, at LXR, the “LXR activation, fold change over DMSO” value came out at 2.5 fold change over DMSO. For the same compound, the “RORα repression, fold change over DMSO” value at RORα is on record as 0.1 fold change over DMSO.

For the compound `OC(c1ccc(-c2ccc(CN3CCN(CC4COc5ccccc5O4)CC3)cc2)cc1)(C(F)(F)F)C(F)(F)F` (stereo not drawn) [Compound 21, 2-(4′-((4-((2,3-Dihydrobenzo[b][1,4]dioxin-2-yl)methyl)piperazin-1-yl)methyl)-[1,1′-biphenyl]-4-yl)-1,1,1,3,3,3-hexafluoropropan-2-ol], in the assay on VP16, the “VP16 repression, fold change over DMSO” value worked out at 0.35 fold change over DMSO. The “RORγ repression, fold change over DMSO” value at RORγ was determined as 0.35 fold change over DMSO. Also, the “LXR activation, fold change over DMSO” value at LXR is listed as 0.7 fold change over DMSO. In addition, the “RORα repression, fold change over DMSO” value on RORα was found to be 0.45 fold change over DMSO.

As to `CCCNC(=O)N1CCN(Cc2ccc(-c3ccc(C(O)(C(F)(F)F)C(F)(F)F)cc3)cc2)CC1` [Compound 22, 4-((4′-(1,1,1,3,3,3-Hexafluoro-2-hydroxypropan-2-yl)-[1,1′-biphenyl]-4-yl)methyl)-N-propylpiperazine-1-carboxamide], the “VP16 repression, fold change over DMSO” value in the assay with VP16 came out at 0.4 fold change over DMSO. Further, at RORγ, the “RORγ repression, fold change over DMSO” value came to 0.4 fold change over DMSO. Also, on LXR, the “LXR activation, fold change over DMSO” value worked out at 1.8 fold change over DMSO. Besides, the “RORα repression, fold change over DMSO” value at RORα is given as 0.5 fold change over DMSO.

Turning to `O=C(Nc1ccccc1)N1CCN(Cc2ccc(-c3ccc(C(O)(C(F)(F)F)C(F)(F)F)cc3)cc2)CC1` [Compound 23, 4-((4′-(1,1,1,3,3,3-Hexafluoro-2-hydroxypropan-2-yl)-[1,1′-biphenyl]-4-yl)methyl)-N-phenylpiperazine-1-carboxamide], the “VP16 repression, fold change over DMSO” value in the assay with VP16 came out at 0.55 fold change over DMSO. Moreover, the “RORγ repression, fold change over DMSO” value at RORγ turned out to be 0.5 fold change over DMSO. In addition, the “LXR activation, fold change over DMSO” value at LXR worked out at 2 fold change over DMSO. In addition, the “RORα repression, fold change over DMSO” value on RORα is 0.9 fold change over DMSO.

With `O=C(NCc1ccccc1)N1CCN(Cc2ccc(-c3ccc(C(O)(C(F)(F)F)C(F)(F)F)cc3)cc2)CC1` [Compound 24, N-Benzyl-4-((4′-(1,1,1,3,3,3-hexafluoro-2-hydroxypropan-2-yl)-[1,1′-biphenyl]-4-yl)methyl)piperazine-1-carboxamide], the “VP16 repression, fold change over DMSO” value in the assay on VP16 is reported as 0.25 fold change over DMSO. Further, the “RORγ repression, fold change over DMSO” value at RORγ stood at 0.25 fold change over DMSO. For the same compound, the “LXR activation, fold change over DMSO” value at LXR amounted to 1.3 fold change over DMSO. Besides, the “RORα repression, fold change over DMSO” value at RORα worked out at 0.5 fold change over DMSO.

`CC(C)CCN1CCN(Cc2ccc(-c3ccc(C(O)(C(F)(F)F)C(F)(F)F)cc3)cc2)CC1` [Example 157, 1,1,1,3,3,3-hexafluoro-2-(4′-((4-isopentylpiperazin-1-yl)methyl)-[1,1′-biphenyl]-4-yl)propan-2-ol]: at GST-RORγ, the remaining activity at 1 µM is 20%.

Consider `CCCCC(=O)N1CCN(Cc2ccc(-c3ccc(C(O)(C(F)(F)F)C(F)(F)F)cc3)cc2)CC1` [Example 158, 1-(4-((4′-(1,1,1,3,3,3-hexafluoro-2-hydroxypropan-2-yl)-[1,1′-biphenyl]-4-yl)methyl)piperazin-1-yl)pentan-1-one], for which the remaining activity at 1 µM at GST-RORγ stood at 10%.

On to `O=C(Cc1c[nH]cn1)N1CCN(Cc2ccc(-c3ccc(C(O)(C(F)(F)F)C(F)(F)F)cc3)cc2)CC1` [Example 159, 1-(4-((4′-(1,1,1,3,3,3-hexafluoro-2-hydroxypropan-2-yl)-[1,1′-biphenyl]-4-yl)methyl)piperazin-1-yl)-2-(1H-imidazol-4-yl)ethanone], for which the remaining activity at 1 µM on GST-RORγ was 80%.

As to `OC(c1ccc(-c2ccc(CN3CCN(Cc4ccncc4)CC3)cc2C(F)(F)F)cc1)(C(F)(F)F)C(F)(F)F` [Example 160, 1,1,1,33,33-hexafluoro-2-(4′-((4-(pyridin-4-ylmethyl)piperazin-1-yl)methyl)-2′-(trifluoromethyl)-[1,1′-biphenyl]-4-yl)propan-2-ol], on GST-RORγ, the remaining activity at 1 µM was found to be 77%.

Regarding `N#Cc1cc(-c2ccc(C(O)(C(F)(F)F)C(F)(F)F)cc2)ccc1CN1CCN(Cc2ccncc2)CC1` [Example 161, 4′-(1,1,1,3,3,3-hexafluoro-2-hydroxypropan-2-yl)-4-((4-(pyridin-4-ylmethyl)piperazin-1-yl)methyl)-[1,1′-biphenyl]-3-carbonitrile], at GST-RORγ, the remaining activity at 1 µM turned out to be 95%.

Take `OC(c1ccc(-c2ccc3c(c2)CCN3C2CCN(Cc3ccncc3)CC2)cc1)(C(F)(F)F)C(F)(F)F` [Example 162, 1,1,1,3,3,3-hexafluoro-2-(4-(1-(1-(pyridin-4-ylmethyl)piperidin-4-yl)indolin-5-yl)phenyl)propan-2-ol]: at GST-RORγ, the remaining activity at 1 µM was found to be 15%.

As for `OC(c1ccc(-c2cccc(CC3CCCN(Cc4ccncc4)C3)c2)cc1)(C(F)(F)F)C(F)(F)F` (stereo not drawn) [Example 163, 1,1,1,3,3,3-hexafluoro-2-(3′-((1-(pyridin-4-ylmethyl)piperidin-3-yl)methyl)-[1,1′-biphenyl]-4-yl)propan-2-ol], the remaining activity at 1 µM on GST-RORγ is 10%.

Take `OC(c1ccc(-c2ccc(CC3CCN(Cc4ccncc4)CC3)cc2)cc1)(C(F)(F)F)C(F)(F)F` [Example 164, 1,1,1,3,3,3-hexafluoro-2-(4′-((1-(pyridin-4-ylmethyl)piperidin-4-yl)methyl)-[1,1′-biphenyl]-4-yl)propan-2-ol]: on GST-RORγ, the remaining activity at 1 µM is 10%.
